Test results reported in article PMC8764033, “Single-molecule analysis of specificity and multivalency in binding of short linear substrate motifs to the APC/C” (Nature Communications, 2022).
Where “and” joins values, the source holds several entries; their conditions need not be identical. Equal entries are not always repeated. Entries after “also recorded” stand apart in the source; their conditions may differ. Where a SMILES comes first, the peptide text is derived from it.

Experiments:
Cdh1^WD40 = molecular target: T1, Cdh1^WD40 (Saccharomyces cerevisiae, UniProt P53197); test: SMOR assay (single-molecule off-rate, TIRF), yeast Cdh1^WD40; type: binding
T1 construct: the WD40 domains of yeast Cdh1 (aa 241–550; pNH144); made in house; host or cells: Sf9 insect cells (baculovirus)
T1 sequence (P53197 241-550): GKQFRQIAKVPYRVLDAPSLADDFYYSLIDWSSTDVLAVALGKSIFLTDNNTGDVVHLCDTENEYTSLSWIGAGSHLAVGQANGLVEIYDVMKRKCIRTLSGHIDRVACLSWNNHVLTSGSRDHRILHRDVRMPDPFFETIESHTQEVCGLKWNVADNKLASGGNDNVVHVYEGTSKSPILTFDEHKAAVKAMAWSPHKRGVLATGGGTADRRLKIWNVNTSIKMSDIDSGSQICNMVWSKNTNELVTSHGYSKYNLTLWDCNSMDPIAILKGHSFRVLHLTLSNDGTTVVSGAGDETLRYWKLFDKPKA
Experimental: (§1) Activators were cloned into the pFastBac HT A vector, with an N-terminal 2xStrep-Tag II. For some experiments, we constructed vectors for expression of the WD40 domains of yeast Cdh1 (aa 241–550; pNH144), human Cdh1 (aa 165–484; pNH164), or human Cdc20 (aa 162–484; pNH188). For SMOR, a C-terminal GFP tag was added. Bacmid plasmids are listed in Supplementary Table 3. Plasmids were transformed into DH10Bac cells, and purified Bacmid was used to transfect Sf9 cells to generate P1 baculovirus, which was used to generate P2 virus. SF9 cells were infected with the P2 virus for 48 h. Flash-frozen pellets were lysed by sonication or high-pressure homogenization in lysis buffer B (50 mM Tris-HCl pH 8, 150 mM KCl, 0.5 mM EDTA, 1 mM DTT, 10% Glycerol, EDTA-free protease inhibitor tablet, 1 µg ml^−1 pepstatin A). After the lysate was applied to the StrepTrap column, the column was washed with wash buffer B (lysis buffer B lacking protease inhibitors) and eluted in the same buffer containing 2.5 mM desthiobiotin.
(§2) For all SMOR experiments, 24 × 50 mm high precision glass coverslips (Bioscience Tools) and drilled microscope slides were passivated with a combination of PEG and PEG-biotin (coverslips) or PEG only (slides) following a previously published protocol for SiMPull[31]. Reaction chambers (~20 µl) were created using double-sided tape and epoxy. Protein was immobilized on the surface with 0.2 mg ml^−1 NeutrAvidin in buffer C (20 mM HEPES pH 7.5, 150 mM KCl, 10% glycerol, 0.05% Tween-20, 1 mM DTT). Excess NeutrAvidin was washed away and incubated with either biotin-conjugated mouse monoclonal anti-Strep-Tag II antibody (LSBio, Cat. No. LS-C203632-100) or biotin-conjugated rabbit polyclonal anti-GFP antibody (Rockland, Cat. No. 600-406-215) diluted in buffer C + BSA (0.1 mg ml^−1; Molecular Biology Grade Bovine Serum Albumin). Activator WD40 and activated APC/C (typically 50 µl containing about 65 ng APC/C, of which only a small fraction is immobilized on the glass) were immobilized using anti-Strep-Tag II, while APC/C alone was immobilized with anti-GFP. SMOR results were similar when performed in the buffer (wash buffer B) used in polarization anisotropy.
(§3) To capture dynamic protein–protein interactions, dye-labeled substrate diluted in buffer C + BSA was added to the chamber containing immobilized proteins. Interactions were imaged by TIRF microscopy as described below. For optimal signal-to-noise ratio, peptide concentration was no greater than 1 nM. Protein substrates included Hsl1 aa 667–872 and a C-terminal HaloTag followed by a TAP tag, and were produced by translation in rabbit reticulocyte lysates using TnT Quick Coupled Transcription/Translation System (Promega) (see Supplementary Table 5 for plasmids). Protein was purified with magnetic IgG beads and labeled on the bead with JF549 or JF646 dye so that unbound dye could be washed away. Purified dye-labeled protein was then cleaved from the beads using TEV protease. Before adding substrate to the reaction chamber, oxygen scavenging reagents were added (10 nM protocatechuate-3,4-dioxygenase, 2.5 mM protocatechuic acid, and 1 mM Trolox)[41]. A detailed description of the SMOR analysis pipeline is found in Supplementary Note 1.
(§4) Microscopy was performed with a Nikon Eclipse TE2000-E with Perfect Focus with a 100 × 1.49na oil, Apo TIRF DIC N2, 0.13-0.2, WD0.12 objective. Movies were recorded using the Andor iXon DU-897E-CSO. For visualizing GFP-tagged protein, a 491 nm laser was used with an ET525/50 (Chroma) filter for emission. For visualizing JF549-labeled substrate, a 561 nm laser was used with an ET595/50 (Chroma) filter for emission. For visualizing all Cy5-labeled peptides and JF646-labeled substrates, a 640 nm laser was used with an ET685/70 filter (Chroma) for emission. […]

hCdh1^WD40 = molecular target: T2, hCdh1^WD40 (Homo sapiens, UniProt Q9UM11); test: SMOR assay, human Cdh1 WD40; type: binding; conditions: for mean dwell time: representative of two independent experiments, ± SE, ligand ≤1 nM, buffer C + BSA
T2 construct: human Cdh1 (aa 165–484; pNH164); made in house; host or cells: Sf9 insect cells (baculovirus)
T2 sequence (Q9UM11 165-484): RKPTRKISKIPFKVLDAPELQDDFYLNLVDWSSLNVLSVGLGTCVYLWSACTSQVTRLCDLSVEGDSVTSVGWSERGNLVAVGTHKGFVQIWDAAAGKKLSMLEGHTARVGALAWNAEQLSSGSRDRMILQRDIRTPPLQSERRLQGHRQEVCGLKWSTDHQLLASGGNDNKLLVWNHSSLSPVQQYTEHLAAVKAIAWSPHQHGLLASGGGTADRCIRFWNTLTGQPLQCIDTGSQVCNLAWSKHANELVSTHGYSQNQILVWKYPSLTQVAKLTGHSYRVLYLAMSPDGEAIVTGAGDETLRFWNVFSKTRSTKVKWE
Experimental: as §1, §2, §3, §4

[1] = Supplementary Table 1, replicate 1
[2] = Supplementary Table 1, replicate 2
[3] = Supplementary Table 1, replicate 1 (movie listed first)
[4] = Supplementary Table 1, replicate 2 (movie listed second)

In the case of CC(C)C[C@H](NC(=O)[C@H](C)NC(=O)[C@H](CCCNC(=N)N)NC(=O)[C@H](CCCNC(=N)N)NC(=O)[C@@H]1CCCN1C(=O)[C@H](CCCCN)NC(=O)[C@H](CO)NC(=O)[C@H](CC(=O)O)NC(=O)[C@@H](N)CCC(N)=O)C(=O)N[C@H](C(=O)N[C@@H](CC(=O)O)C(=O)N[C@H](C(=O)N1CCC[C@H]1C(=O)N[C@H](C(=O)N[C@@H](CC(N)=O)C(=O)N[C@@H](CC(N)=O)C(=O)N[C@@H](CC(N)=O)C(=O)N1CCC[C@H]1C(=O)N[C@@H](CC(C)C)C(=O)N[C@@H](CO)C(=O)N[C@@H](CCC(N)=O)C(=O)N[C@@H](CCCCN)C(=O)O)C(C)C)C(C)C)[C@@H](C)O [Clb5 D box] (H-QDSKPRRALTDVPVNNNPLSQK-OH; N-terminus and C-terminus assumed), the “Dwell Time (in words)” value (Cdh1^WD40; [1]) is reported as “single frame”, the “Dwell Time (in words)” value (Cdh1^WD40; [2]) is reported as “single frame” and the “Dwell Time (in words)” value (hCdh1^WD40; [1]) is reported as “single frame”. For the same compound, the “Dwell Time (in words)” value (hCdh1^WD40; [2]) was “single frame”.
CC[C@H](C)[C@H](NC(=O)[C@H](CC(=O)O)NC(=O)[C@H](CO)NC(=O)[C@H](C)NC(=O)[C@H](C)NC(=O)[C@H](C)NC(=O)[C@H](C)NC(=O)[C@H](CCCCN)NC(=O)[C@@H]1CCCN1C(=O)[C@H](CCCCN)NC(=O)[C@H](CCC(N)=O)NC(=O)[C@@H](N)CCC(=O)O)C(=O)N[C@H](C(=O)N[C@@H](C)C(=O)N[C@@H](CO)C(=O)N[C@@H](Cc1ccccc1)C(=O)N[C@@H](CC(N)=O)C(=O)N[C@@H](CCCCN)C(=O)N[C@@H](CCSC)C(=O)N[C@@H](CC(N)=O)C(=O)N[C@@H](CCCCN)C(=O)O)[C@@H](C)O [Hsl1 D box mutant] (H-EQKPKAAAASDITASFNKMNK-OH; N-terminus and C-terminus assumed) was tested, and the “binding (in words)” value (Cdh1^WD40) was “negligible binding; also recorded: No binding”, the “Dwell Time (in words)” value (Cdh1^WD40; [1]) was “no binding” and the “Dwell Time (in words)” value (Cdh1^WD40; [2]) was “no binding”. The “binding (in words)” value (hCdh1^WD40) was “No binding” and the “Dwell Time (in words)” value (hCdh1^WD40; [1]) was “no binding”.
CC[C@H](C)[C@H](NC(=O)[C@H](Cc1ccccc1)NC(=O)[C@H](CO)NC(=O)[C@H](CCCCN)NC(=O)[C@H](CO)NC(=O)[C@H](CCCNC(=N)N)NC(=O)[C@H](CC(N)=O)NC(=O)[C@H](CC(N)=O)NC(=O)[C@H](CC(=O)O)NC(=O)[C@H](CCCCN)NC(=O)[C@H](C)NC(=O)[C@H](C)NC(=O)[C@H](CC(C)C)NC(=O)[C@@H]1CCCN1C(=O)[C@H](CC(C)C)NC(=O)[C@H](CCCNC(=N)N)NC(=O)CNC(=O)[C@H](CCC(N)=O)NC(=O)[C@H](CCC(N)=O)NC(=O)[C@H](CCC(N)=O)NC(=O)[C@H](C)N)C(=O)N[C@@H](CCCCN)C(=O)O [ySecurin D box] (H-AQQQGRLPLAAKDNNRSKSFIK-OH; N-terminus and C-terminus assumed) was tested, and the “Dwell Time (in words)” value (Cdh1^WD40; [1]) was “single frame”, the “Dwell Time (in words)” value (Cdh1^WD40; [2]) was “single frame” and the “Dwell Time (in words)” value (hCdh1^WD40; [1]) was “single frame”. For the same compound, the “Dwell Time (in words)” value (hCdh1^WD40; [2]) was “single frame”.
“LIYVDKENGEPGTR-K(Cy5) [hSecurin KEN, Cy5-labeled KEN box peptide of human securin/Pttg1]” was tested, and the “binding (in words)” value (Cdh1^WD40) was “No binding”, the “Dwell Time (in words)” value (Cdh1^WD40; [1]) was “no binding” and the “Dwell Time (in words)” value (Cdh1^WD40; [2]) was “no binding”. For the same compound, the “Dwell Time” value (hCdh1^WD40; [3]) was 0.171 ± 0.004 s, the “Dwell Time” value (hCdh1^WD40; [4]) was 0.174 ± 0.003 s and the mean dwell time (hCdh1^WD40) was 0.174 ± 0.003 s and 0.174 s.
For “LPKATRKALGTVNRATEKSVK-K(Cy5) [AurKB D box, Cy5-labeled D box peptide of Aurora B kinase]”, the “Dwell Time (in words)” value (Cdh1^WD40; [1]) was “single frame”, the “Dwell Time (in words)” value (Cdh1^WD40; [2]) was “single frame” and the “Dwell Time” value (hCdh1^WD40; [3]) was 0.202 ± 0.003 s. The “Dwell Time” value (hCdh1^WD40; [4]) was 0.135 ± 0.003 s and the mean dwell time (hCdh1^WD40) was 0.202 ± 0.003 s and 0.202 s.
For “SKAAQFMLYEETAEERNI-K(Cy5) [Acm1 ABBA, Cy5-labeled Cdh1-specific ABBA motif from pseudosubstrate yeast protein Acm1]”, the “Dwell Time (in words)” value (Cdh1^WD40; [1]) was “single frame”, the “Dwell Time (in words)” value (Cdh1^WD40; [2]) was “single frame” and the “binding (in words)” value (hCdh1^WD40) was “No binding”. For the same compound, the “Dwell Time (in words)” value (hCdh1^WD40; [1]) was “no binding” and the “Dwell Time (in words)” value (hCdh1^WD40; [2]) was “no binding”.
